# According to patent publication US7902354B2, “Lapachone compounds and methods of use thereof” (ArQule, Inc., priority 2006, dated 2011):
# Structures can show the parent of a compound that is named as a salt.
row,Structure (SMILES),melting point
1,COc1ccc2c(c1)C(=O)C(=O)C1=C2OC2(CCN(C[C@H](O)COc3ccc(F)cc3)CC2)CS1,189 to 191 °C
2,O=C1C(=O)c2ccc(Br)cc2C2=C1SCC1(CCN(Cc3ccc(F)cc3)CC1)O2,210 to 211 °C
3,O=C1C(=O)c2ccccc2C2=C1SCC1(CCN(C3CCN(C(=O)Oc4cccc(C(F)(F)F)c4)CC3)CC1)O2,70 to 73 °C
4,CC(C)(C)c1ccc(OC[C@@H](O)CN2CCC3(CC2)CSC2=C(O3)c3cc(-c4ccccc4)ccc3C(=O)C2=O)cc1,151 to 152 °C
5,Cl.NC1CCC2(CC1)CSC1=C(O2)c2ccccc2C(=O)C1=O (stereo not drawn),256 to 257 °C
6,O=C1C(=O)c2ccccc2C2=C1SCC1(CCSCC1)O2,221 to 223 °C
7,COc1ccc2c(c1)C1=C(SCC3(CCN(Cc4ccc(F)cc4)CC3)O1)C(=O)C2=O,196 to 197 °C
8,O=C1C(=O)c2ccc(-c3ccc(C(F)(F)F)cc3)cc2C2=C1SCC1(CCNCC1)O2,190 to 240 °C
9,O=C1C(=O)c2ccc(Br)cc2C2=C1SCC1(CCN(C[C@@H](O)Cc3ccccc3)CC1)O2,82 to 83 °C
10,O=C1C(=O)c2ccccc2C2=C1SCC1(CCC3(CC1)OCCO3)O2,251 to 252 °C
11,O=C1C(=O)c2ccccc2C2=C1SCC1(CCN(C(=O)NS(=O)(=O)c3ccccc3)CC1)O2,155 to 165 °C
12,COc1ccc2c(c1)C(=O)C(=O)C1=C2OC2(CCN(Cc3ccc(F)cc3)CC2)CS1,219 to 221 °C
13,COC(=O)Cc1ccc(OC[C@H](O)CN2CCC3(CC2)CSC2=C(O3)c3ccccc3C(=O)C2=O)cc1,122 to 124 °C
14,O=C1C(=O)c2ccccc2C2=C1SCC1(CCN(C(=O)NS(=O)(=O)c3ccc(F)cc3)CC1)O2,173 to 180 °C
15,O=C1C(=O)c2ccccc2C2=C1SCC1(CCN(CCCOc3ccc(F)cc3)CC1)O2,164 to 165 °C
16,Cl.O=C1C(=O)c2ccccc2C2=C1SCC1(CCN(C(=O)CC3CCNCC3)CC1)O2,200 to 202 °C
17,COc1ccc2c(c1)C1=C(SCC3(CCN(C[C@H](O)COc4ccc(Cl)cc4)CC3)O1)C(=O)C2=O,109 to 110 °C
18,NC(=O)N1CCC2(CC1)CSC1=C(O2)c2ccccc2C(=O)C1=O,218 to 220 °C
19,O=C1C(=O)c2ccccc2C2=C1SCC1(CCOCC1)O2,195 to 197 °C

row,Structure (SMILES),melting point
1,O=C1C(=O)c2ccccc2C2=C1SCC1(CCN(Cc3ccc(F)cc3F)CC1)O2,104 to 107 °C
2,COc1ccc2c(c1)C(=O)C(=O)C1=C2OC2(CCN(C[C@@H](O)Cc3ccccc3)CC2)CS1,146 to 147 °C
3,O=C1C(=O)c2ccc(F)cc2C2=C1SCC1(CCN(C[C@@H](O)Cc3ccccc3)CC1)O2,77 to 79 °C
4,O=C1C(=O)c2ccc(-c3cccc(C(F)(F)F)c3)cc2C2=C1SCC1(CCNCC1)O2,199 to 203 °C
5,O=C1C(=O)c2ccc(-c3ccccc3)cc2C2=C1SCC1(CCN(C[C@H](O)COc3ccc(F)cc3)CC1)O2,173 to 175 °C
6,O=C1C(=O)c2ccccc2C2=C1SCC1(CCN(C(=O)Cc3ccc(Cl)cc3)CC1)O2,120 to 125 °C
7,O=C1C(=O)c2ccccc2C2=C1SCC1(CCN(CCCOc3ccc(Cl)cc3)CC1)O2,130 to 132 °C
8,Cc1ccc(S(=O)(=O)NC(=O)N2CCC3(CC2)CSC2=C(O3)c3ccccc3C(=O)C2=O)cc1,153 to 158 °C
9,O=C(NC1CCC2(CC1)CSC1=C(O2)c2ccccc2C(=O)C1=O)Oc1cccc(C(F)(F)F)c1 (stereo not drawn) (as salt: hydrochloride),198 to 199 °C
10,O=C1C(=O)c2ccccc2C2=C1SCC1(CCCCC1)O2,194 to 195 °C
11,O=C1C(=O)c2ccccc2C2=C1SCC1(CCCN(C(=O)Oc3cccc(C(F)(F)F)c3)C1)O2 (stereo not drawn),95 to 99 °C
12,O=C1C(=O)c2ccccc2C2=C1SCC1(CCCN(C[C@H](O)Cc3ccccc3)C1)O2 (stereo partly drawn),65 to 67 °C
13,CCC(O)CN1CCC2(CC1)CSC1=C(O2)c2ccccc2C(=O)C1=O (stereo not drawn),180 to 182 °C
14,COc1ccc2c(c1)C(=O)C(=O)C1=C2OC2(CCN(C[C@H](O)Cc3ccccc3)CC2)CS1,145 to 147 °C
15,O=C1C(=O)c2ccc(-c3ccccc3)cc2C2=C1SCC1(CCN(C[C@@H](O)COc3ccc(Cl)cc3)CC1)O2,111 to 112 °C
16,CC(C)(C)c1ccc(OC[C@@H](O)CN2CCC3(CC2)CSC2=C(O3)c3cc(Cl)ccc3C(=O)C2=O)cc1,94 to 97 °C
17,O=C1C(=O)c2ccc(-c3ccccc3)cc2C2=C1SCC1(CCNCC1)O2,83 to 87 °C
18,O=C1C(=O)c2ccccc2C2=C1SCC1(CCN(CCCCc3ccccc3)CC1)O2,145 to 147 °C
19,CC(C)(C)OC(=O)NC1CCC2(CC1)CSC1=C(O2)c2ccccc2C(=O)C1=O (stereo not drawn),224 to 225 °C

row,Structure (SMILES),melting point
1,O=C1C(=O)c2ccc(F)cc2C2=C1SCC1(CCN(C[C@H](O)Cc3ccccc3)CC1)O2,76 to 77 °C
2,CC(C)(C)OC(=O)N1CCC2(CC1)CSC1=C(O2)c2cc(-c3cccnc3)ccc2C(=O)C1=O,217 to 219 °C
3,CC(C)(C)c1ccc(OC[C@@H](O)CN2CCC3(CC2)CSC2=C(O3)c3cc(Br)ccc3C(=O)C2=O)cc1,150 to 152 °C
4,O=C1C(=O)c2ccccc2C2=C1SCC1(CCN(CC(O)Cc3ccc(Cl)cc3)CC1)O2 (stereo not drawn),195 to 196 °C
5,O=C1C(=O)c2ccccc2C2=C1SCC1(CCN(CC3CCCCO3)CC1)O2 (stereo not drawn),135 to 137 °C
6,O=C1C(=O)c2ccc(-c3cccnc3)cc2C2=C1SCC1(CCN(C(=O)c3cccc(Cl)c3)CC1)O2,240 to 242 °C
7,COc1ccc2c(c1)C(=O)C(=O)C1=C2OC2(CCN(C[C@@H](O)COc3ccc(C(C)(C)C)cc3)CC2)CS1,188 to 190 °C
8,COc1ccc2c(c1)C1=C(SCC3(CCN(C[C@H](O)COc4ccc(F)cc4)CC3)O1)C(=O)C2=O,80 to 81 °C
9,O=C1C(=O)c2ccc(N3CCCCC3)cc2C2=C1SCC1(CCNCC1)O2,300 °C (dec.)
10,COc1ccc2c(c1)C(=O)C(=O)C1=C2OC2(CCN(C(=O)c3cccc(Cl)c3)CC2)CS1,130 °C (dec.)
11,CC(C)(C)OC(=O)N1CCC2(CC1)CSC1=C(O2)c2cc(-c3ccncc3)ccc2C(=O)C1=O,225 to 227 °C
12,COc1ccc2c(c1)C1=C(SCC3(CCN(C[C@H](O)COc4ccc(C(C)(C)C)cc4)CC3)O1)C(=O)C2=O,153 to 156 °C
13,O=C1C(=O)c2ccc(-c3ccccc3)cc2C2=C1SCC1(CCN(C(=O)Oc3cccc(C(F)(F)F)c3)CC1)O2,188 to 190 °C
14,O=C1C(=O)c2ccccc2C2=C1SCC1(CCN(C[C@H](O)COc3ccc4cc(Br)ccc4c3)CC1)O2,183 to 184 °C
15,COc1ccc2c(c1)C1=C(SCC3(CCN(C[C@@H](O)Cc4ccccc4)CC3)O1)C(=O)C2=O,110 °C
16,O=C1C(=O)c2ccc(-c3ccccc3)cc2C2=C1SCC1(CCN(Cc3ccc(F)cc3)CC1)O2,197 to 198 °C
17,O=C1C(=O)c2ccc(Br)cc2C2=C1SCC1(CCN(C[C@H](O)Cc3ccccc3)CC1)O2,82 to 84 °C
18,O=C1C(=O)c2ccccc2C2=C1SCC1(CCC(NC(=O)c3cccc(C(F)(F)F)c3)CC1)O2 (stereo not drawn) (as salt: hydrochloride),266 to 267 °C
19,CC(C)(C)OC(=O)N1CCC2(CC1)CSC1=C(O2)c2cc(N3CCOCC3)ccc2C(=O)C1=O,243 to 244 °C
